# Data taken from the Kinase Knowledgebase extract (Sharma et al. 2016).
# Molecular target: PIK3CA (human) (UniProt P42336)
# Assay: Assessment of PIK3CA Kinase Activity
# PIK3CA (human), sequence (P42336 whole entry, looked up): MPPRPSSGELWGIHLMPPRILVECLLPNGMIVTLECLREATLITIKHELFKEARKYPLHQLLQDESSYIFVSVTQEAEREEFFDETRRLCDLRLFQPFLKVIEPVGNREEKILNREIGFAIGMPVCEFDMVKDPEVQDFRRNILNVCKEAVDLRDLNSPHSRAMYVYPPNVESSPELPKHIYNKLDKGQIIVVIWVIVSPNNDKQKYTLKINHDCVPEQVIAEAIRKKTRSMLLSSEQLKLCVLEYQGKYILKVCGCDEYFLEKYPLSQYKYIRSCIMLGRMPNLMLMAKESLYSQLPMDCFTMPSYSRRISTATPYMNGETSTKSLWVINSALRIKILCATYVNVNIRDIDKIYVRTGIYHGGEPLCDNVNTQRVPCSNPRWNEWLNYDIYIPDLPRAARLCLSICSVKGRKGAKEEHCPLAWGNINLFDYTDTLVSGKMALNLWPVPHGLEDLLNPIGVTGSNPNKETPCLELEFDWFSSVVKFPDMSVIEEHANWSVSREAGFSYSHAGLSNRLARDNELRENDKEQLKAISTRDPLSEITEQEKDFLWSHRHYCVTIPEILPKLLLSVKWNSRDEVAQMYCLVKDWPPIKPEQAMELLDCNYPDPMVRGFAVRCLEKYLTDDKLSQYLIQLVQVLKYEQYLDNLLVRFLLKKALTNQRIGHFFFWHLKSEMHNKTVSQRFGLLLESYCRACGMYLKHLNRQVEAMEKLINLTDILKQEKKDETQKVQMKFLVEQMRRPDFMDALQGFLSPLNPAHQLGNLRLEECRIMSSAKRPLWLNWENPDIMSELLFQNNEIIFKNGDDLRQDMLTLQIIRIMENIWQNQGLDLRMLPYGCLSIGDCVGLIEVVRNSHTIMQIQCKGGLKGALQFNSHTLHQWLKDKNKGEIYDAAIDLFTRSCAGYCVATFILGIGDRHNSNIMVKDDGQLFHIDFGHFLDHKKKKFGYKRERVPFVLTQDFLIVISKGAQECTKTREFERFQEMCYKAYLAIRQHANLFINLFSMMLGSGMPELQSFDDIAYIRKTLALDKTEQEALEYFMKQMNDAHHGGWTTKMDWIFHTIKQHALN
row,IC50,SMILES
1,< 50 nM,CN(C)C(=O)c1ccc(NC(=O)Nc2ccc(-c3nc(N4CCOCC4)c4ncc(-c5cncnc5)cc4n3)c(F)c2)cc1
2,< 50 nM,CN(C)C(=O)c1ccc(NC(=O)Nc2ccc(-c3nc(N4CCOCC4)c4ccc(CO)cc4n3)cc2)cc1
3,< 50 nM,CN1CCN(C(=O)c2ccc(NC(=O)Nc3ccc(-c4nc(N5CCOCC5)c5ccc(-c6ccncc6)cc5n4)cc3)cc2)CC1
4,< 50 nM,CN(C)C(=O)c1ccc(NC(=O)Nc2ccc(-c3nc(N4CCOCC4)c4ccc(-c5ccc(CO)o5)cc4n3)cc2F)cc1
5,50 to 200 nM,CN(C)C(=O)c1ccc(NC(=O)Nc2cc(F)c(-c3nc(N4CCOCC4)c4ccc(-c5cncnc5)cc4n3)cc2F)cc1
6,50 to 200 nM,CN(C)C(=O)c1ccc(NC(=O)Nc2ccc(-c3nc(N4CCOCC4)c4ccc(-c5ccnnc5)cc4n3)cc2F)cc1
7,< 50 nM,Cc1nn(C)c(C)c1-c1ccc2c(N3CCOCC3)nc(-c3ccc(NC(=O)Nc4ccc(C(=O)N(C)C)cc4)cc3)nc2c1
8,< 50 nM,CN(C)CCN(C)C(=O)c1ccc(NC(=O)Nc2ccc(-c3nc(N4CCOCC4)c4ccc(-c5ccco5)cc4n3)cc2)cc1
9,< 50 nM,CN(C)C(=O)c1ccc(NC(=O)Nc2ccc(-c3nc(N4CCOCC4)c4ccc(-c5cccnc5)cc4n3)cc2F)cc1
10,50 to 200 nM,Cc1noc(C)c1-c1ccc2c(N3CCOCC3)nc(-c3ccc(NC(=O)Nc4ccc(C(=O)N5CC[C@H](N(C)C)C5)cc4)c(F)c3)nc2c1
11,< 50 nM,CN(C)C(=O)c1ccc(NC(=O)Nc2ccc(-c3nc(N4CCOCC4)c4ccc(-c5cccc(CO)c5)cc4n3)cc2)cc1
12,50 to 200 nM,Cc1ccc(-c2ccc3c(N4CCOCC4)nc(-c4ccc(NC(=O)Nc5ccc(C(=O)N6CC[C@@H](N(C)C)C6)cc5)cc4)nc3c2)o1
13,50 to 200 nM,Cc1noc(C)c1-c1cc2nc(-c3ccc(NC(=O)Nc4ccc(C(=O)N(C)C)cc4)cc3)nc(N3CCOCC3)c2cc1F
14,< 50 nM,CN(C)C(=O)c1ccc(NC(=O)Nc2ccc(-c3nc(N4CCOCC4)c4ccc(-c5cccnc5F)cc4n3)cc2F)cc1
15,< 50 nM,Cc1ccncc1-c1ccc2c(N3CCOCC3)nc(-c3ccc(NC(=O)Nc4ccc(C(=O)N(C)C)cc4)cc3)nc2c1
16,< 50 nM,CN(C)C(=O)c1ccc(NC(=O)Nc2ccc(-c3nc(N4CCOCC4)c4ccc(-c5ccc(N)nc5)cc4n3)cc2)cc1
17,< 50 nM,CN(C)C(=O)c1ccc(NC(=O)Nc2ccc(-c3nc(N4CCOCC4)c4ccc(C(C)(C)O)cc4n3)cc2)cc1
18,< 50 nM,CN(C)C1CCN(C(=O)c2ccc(NC(=O)Nc3ccc(-c4nc(N5CCOCC5)c5ccc(C(C)(C)O)cc5n4)cc3)cc2)CC1
19,< 50 nM,Cc1ccc(-c2ccc3c(N4CCOCC4)nc(-c4ccc(NC(=O)Nc5ccc(C(=O)N(C)C)nc5)nc4)nc3c2)o1
20,50 to 200 nM,CN(C)C(=O)c1ccc(NC(=O)Nc2ccc(-c3nc(N4CCOCC4)c4cc(F)c(-c5cncnc5)cc4n3)cc2)c(F)c1
21,< 50 nM,Cc1ccc(-c2ccc3c(N4CCOCC4)nc(-c4ccc(NC(=O)Nc5ccc(C(=O)N(C)C)cc5)cc4F)nc3c2)cn1
22,50 to 200 nM,CN(C)C(=O)c1ccc(NC(=O)Nc2ccc(-c3nc(N4CCOCC4)c4ccc(-c5cccc(S(C)(=O)=O)c5)cc4n3)cc2)cn1
23,50 to 200 nM,COc1ccc(-c2ccc3c(N4CCOCC4)nc(-c4ccc(NC(=O)Nc5ccc(C(=O)N(C)C)cc5)c(F)c4)nc3c2)cn1
24,< 50 nM,Cc1ccc(-c2ccc3c(N4CCOCC4)nc(-c4ccc(NC(=O)Nc5ccc(C(=O)N(C)CCN(C)C)cc5)cc4)nc3c2)o1

row,IC50,SMILES
1,50 to 200 nM,CN(C)C(=O)c1ccc(NC(=O)Nc2ccc(-c3nc(N4CCOCC4)c4cc(F)c(-c5cncnc5)cc4n3)c(F)c2)cc1
2,< 50 nM,N[C@H]1CCN(C(=O)c2ccc(NC(=O)Nc3ccc(-c4nc(N5CCOCC5)c5ccc(-c6cncnc6)cc5n4)cc3F)cc2)C1
3,< 50 nM,CN(C)C(=O)c1ccc(NC(=O)Nc2ccc(-c3nc(N4CCOCC4)c4ccc(-c5ccc(CO)o5)cc4n3)cc2)cc1F
4,50 to 200 nM,CN(C)C(=O)c1ccc(NC(=O)Nc2ccc(-c3nc(N4CCOCC4)c4ccc(-c5ccco5)cc4n3)cc2)cc1F
5,< 50 nM,Cc1ccncc1-c1ccc2c(N3CCOCC3)nc(-c3ccc(NC(=O)Nc4ccc(C(=O)N(C)C)cc4)c(F)c3)nc2c1
6,< 50 nM,CN(C)C(=O)c1ccc(NC(=O)Nc2ccc(-c3nc(N4CCOCC4)c4ccc(-c5ccc(C(=O)N(C)C)o5)cc4n3)cc2)cc1
7,50 to 200 nM,CNC(=O)c1ccc(NC(=O)Nc2ccc(-c3nc(N4CCOCC4)c4ccc(-c5ccc(C)o5)cc4n3)cc2)cc1
8,< 50 nM,CN(C)C(=O)c1ccc(NC(=O)Nc2ccc(-c3nc(N4CCOCC4)c4ccc(-c5ccsc5)cc4n3)cc2)cc1
9,50 to 200 nM,Cc1ccncc1-c1cnc2c(N3CCOCC3)nc(-c3ccc(NC(=O)Nc4ccc(C(=O)N(C)C)cc4)c(F)c3)nc2c1
10,< 50 nM,CN(C)C(=O)c1ccc(NC(=O)Nc2ccc(-c3nc(N4CCOCC4)c4ccc(-c5ccncc5)cc4n3)cc2)cc1
11,50 to 200 nM,Cc1ccc(-c2ccc3c(N4CCOCC4)nc(-c4ccc(NC(=O)Nc5ccc(C(=O)N(C)C)nc5)c(F)c4)nc3c2)o1
12,< 50 nM,CC(=O)c1ccc(-c2ccc3c(N4CCOCC4)nc(-c4ccc(NC(=O)Nc5ccc(C(=O)N(C)C)cc5)cc4)nc3c2)o1
13,50 to 200 nM,COc1ncc(-c2ccc3c(N4CCOCC4)nc(-c4ccc(NC(=O)Nc5ccc(C(=O)N(C)C)cc5F)cc4)nc3c2)cn1
14,< 50 nM,CN(C)C(=O)c1ccc(NC(=O)Nc2ccc(-c3nc(N4CCOCC4)c4ncc(-c5cnn(C)c5)cc4n3)cc2)c(F)c1
15,< 50 nM,CC(O)c1ccc(-c2ccc3c(N4CCOCC4)nc(-c4ccc(NC(=O)Nc5ccc(C(=O)N(C)C)cc5)cc4)nc3c2)o1 (configuration not stated)
16,< 50 nM,Cc1ncccc1-c1ccc2c(N3CCOCC3)nc(-c3ccc(NC(=O)Nc4ccc(C(=O)N(C)C)cc4F)cc3)nc2c1
17,< 50 nM,CN(C)[C@H]1CCN(C(=O)c2ccc(NC(=O)Nc3ccc(-c4nc(N5CCOCC5)c5ncc(-c6cccnc6F)cc5n4)cc3F)cc2)C1
18,50 to 200 nM,CC(O)c1ccc(-c2ccc3c(N4CCOCC4)nc(-c4ccc(NC(=O)Nc5ccc(C(=O)N(C)C)cc5)cc4F)nc3c2)o1 (configuration not stated)
19,< 50 nM,CN(C)C(=O)c1ccc(NC(=O)Nc2ccc(-c3nc(N4CCOCC4)c4ccc(-c5cnc(N)nc5)cc4n3)cc2)cc1
20,< 50 nM,CN(C)[C@H]1CCN(C(=O)c2ccc(NC(=O)Nc3ccc(-c4nc(N5CCOCC5)c5ncc(-c6cnn(C)c6)cc5n4)cc3)cc2)C1
21,< 50 nM,Cc1noc(C)c1-c1cnc2c(N3CCOCC3)nc(-c3ccc(NC(=O)Nc4ccc(C(=O)N(C)C)cc4)c(F)c3)nc2c1
22,< 50 nM,CN(C)C(=O)c1ccc(NC(=O)Nc2ccc(-c3nc(N4CCOCC4)c4ccc(-c5ccc(CO)o5)cc4n3)c(F)c2)cc1
23,< 50 nM,Cc1ccc(-c2ccc3c(N4CCOCC4)nc(-c4ccc(NC(=O)Nc5ccc(C(=O)N6CCC(O)C6)cc5)cc4)nc3c2)o1 (configuration not stated)
24,50 to 200 nM,COc1cccc(-c2ccc3c(N4CCOCC4)nc(-c4ccc(NC(=O)Nc5ccc(C(=O)N(C)C)cc5)cc4)nc3c2)c1

row,IC50,SMILES
1,50 to 200 nM,Cc1ccc(-c2ccc3c(N4CCOC(C)C4)nc(-c4ccc(NC(=O)Nc5ccc(C(=O)N(C)C)cc5)cc4)nc3c2)o1 (configuration not stated)
2,< 50 nM,CN1CCN(C(=O)c2ccc(NC(=O)Nc3ccc(-c4nc(N5CCOCC5)c5ncc(-c6cnn(C)c6)cc5n4)cc3)cc2)CC1
3,< 50 nM,CN(C)C(=O)c1ccc(NC(=O)Nc2ccc(-c3nc(N4CCOCC4)c4ccc(-c5ccccn5)cc4n3)cc2)cc1
4,< 50 nM,CN(C)[C@@H]1CCN(C(=O)c2ccc(NC(=O)Nc3ccc(-c4nc(N5CCOCC5)c5ncc(-c6cnn(C)c6)cc5n4)cc3)cc2)C1
5,< 50 nM,Cc1nn(C)c(C)c1-c1ccc2c(N3CCOCC3)nc(-c3ccc(NC(=O)Nc4ccc(C(=O)N(C)C)cc4)cc3F)nc2c1
6,50 to 200 nM,CC1CN(c2nc(-c3ccc(NC(=O)Nc4ccc(C(=O)N(C)C)cc4)c(F)c3)nc3cc(-c4cncnc4)ccc23)CCO1 (configuration not stated)
7,< 50 nM,Cc1ccc(-c2cnc3c(N4CCOCC4)nc(-c4ccc(NC(=O)Nc5ccc(C(=O)N(C)C)cc5)cc4)nc3c2)o1
8,< 50 nM,CN(C)C(=O)c1ccc(NC(=O)Nc2ccc(-c3nc(N4CCOCC4)c4ncc(-c5cnc(N)nc5)cc4n3)cc2)cc1
9,< 50 nM,Cc1ccncc1-c1ccc2c(N3CCOCC3)nc(-c3ccc(NC(=O)Nc4ccc(C(=O)N5CCC(N(C)C)CC5)cc4)cc3)nc2c1
10,< 50 nM,CN(C)C(=O)c1ccc(NC(=O)Nc2ccc(-c3nc(N4CCOCC4)c4ncc(-c5cccnc5)cc4n3)c(F)c2)cc1
11,50 to 200 nM,CN(C)C(=O)c1ccc(NC(=O)Nc2ccc(-c3nc(N4CCOCC4)c4ccc(-c5cnc(N(C)C)nc5)cc4n3)cc2F)cc1
12,< 50 nM,COc1ncc(-c2ccc3c(N4CCOCC4)nc(-c4ccc(NC(=O)Nc5ccc(C(=O)N(C)C)c(F)c5)cc4)nc3c2)cn1
13,< 50 nM,CN(C)CCNC(=O)c1ccc(NC(=O)Nc2ccc(-c3nc(N4CCOCC4)c4ccc(-c5cncnc5)cc4n3)cc2F)cc1
14,50 to 200 nM,CN(C)C(=O)c1ccc(NC(=O)Nc2ccc(-c3nc(N4CCOCC4)c4cc(F)c(-c5cnn(C)c5)cc4n3)cc2F)cc1
15,< 50 nM,CN(C)C(=O)c1ccc(NC(=O)Nc2ccc(-c3nc(N4CCOCC4)c4ncc(-c5cccnc5F)cc4n3)cc2F)cc1
16,50 to 200 nM,CNC(=O)c1ccc(NC(=O)Nc2ccc(-c3nc(N4CCOCC4)c4ccc(-c5cncnc5)cc4n3)cc2)cc1
17,50 to 200 nM,CN(C)C(=O)c1ccc(NC(=O)Nc2ccc(-c3nc(N4CCOCC4)c4ccc(-c5cncnc5)cc4n3)cc2F)cn1
18,50 to 200 nM,CN(C)C(=O)c1ccc(NC(=O)Nc2ccc(-c3nc(N4CCOCC4)c4ccc(-c5ccco5)cc4n3)c(F)c2F)cc1
19,50 to 200 nM,CN(C)Cc1ccc(-c2ccc3c(N4CCOCC4)nc(-c4ccc(NC(=O)Nc5ccc(C(=O)N(C)C)cc5)cc4)nc3c2)o1
20,< 50 nM,CN1CCN(C(=O)c2ccc(NC(=O)Nc3ccc(-c4nc(N5CCOCC5)c5ccc(-c6cccc(S(C)(=O)=O)c6)cc5n4)cc3)cc2)CC1
21,< 50 nM,COc1ccc(-c2ccc3c(N4CCOCC4)nc(-c4ccc(NC(=O)Nc5ccc(C(=O)N(C)C)cc5F)cc4)nc3c2)cn1
22,< 50 nM,CN(C)C(=O)c1ccc(NC(=O)Nc2ccc(-c3nc(N4CCOCC4)c4ccc(-c5cnn(C)c5)cc4n3)cc2F)cc1
23,< 50 nM,CN1CCN(C(=O)c2ccc(NC(=O)Nc3ccc(-c4nc(N5CCOCC5)c5ncc(-c6cncnc6)cc5n4)cc3)cc2)CC1
24,< 50 nM,CN(C)[C@@H]1CCN(C(=O)c2ccc(NC(=O)Nc3ccc(-c4nc(N5CCOCC5)c5cc(F)c(-c6cccnc6)cc5n4)cc3)cc2)C1
